Results on three compounds are retold here after patent US20260335278A1, “PHYTOCHEMICAL FORMULATIONS FOR TREATING STRESS AND ANXIETY” (GBS GLOBAL BIOPHARMA, INC., priority 2022, published 2026).

“Also recorded” adds a separate entry of the source.

Data set [1] concerns zebrafish larvae. Briefly: Baseline activity / baseline exposure (90 min continuous light), zebrafish larvae. Also on record: key to Baseline Exposure: +: statistically significant increase; −−: statistically significant decrease. It counts as in vivo. As for the experimental part: (§1) The validation process for the phytochemicals derived from Piper methysticum, other Piper plant family members, and non-Piper medicinal plants and fungi includes testing the selected phytochemical drug candidates as singles, doubles, and triples in two complementary zebrafish models of stress and anxiety. These two complementary assays are the Light/Dark Stress Response test that is illustrated in FIG. 5 (after the 90 min study of the effect of the compounds and mixtures on Baseline Activity) and the Thigmotaxis assay, as illustrated in FIG. 61A and FIG. 61B, which is also known as the wall flower effect, like the social anxiety of humans. Zebrafish larvae show a clear and distinct pattern of swimming in response to rapidly alternating light and dark conditions in the Light/Dark Response testing, which trigger a flight or fight response and darting behavior indicative of great stress and anxiety. The Light/Dark testing uses a control group to automatically track, using an automatic tracking device, the larval behavior in response to dark to light conditions. The thigmotaxis assay also uses automatic tracking and appropriate controls. In multiple embodiments additional Zebrafish larvae are given various concentrations of the selected phytochemicals from Table 1 for tracking Light/Dark Responses or Thigmotactic behavioral changes in the treated zebrafish larvae. Table 2A and Table 2B summarize the results from both assays when the individual phytochemicals are exposed to the: Baseline Activity (90 minutes in the light), Light/Dark Stress Response (5 min alternating pulses of dark and light for 30 min.), and Thigmotaxis Activity (% of time in the light center of the chamber (anxiety inducing) versus % of time near the dark (soothing) wall).
(§2) The present invention includes a process to discover new pharmaceutical medicines for the treatment of stress, anxiety and anxiety-related disorders in a human. The preclinical testing included the effects of these 14 individual phytochemicals and 300 ratio-controlled mixtures of these phytochemicals in assays measuring the behavioral stress response patterns of zebrafish larvae. Larval behavior is assessed with at least one functional assay of stress or anxiety following acute exposure to each phytochemical sample formulated. Stereotypical basal activity patterns of zebrafish will be assessed to determine the potential side effects of the phytochemical samples in a concentration dependent manner for each compound on two zebrafish models of stress and anxiety: 1) the Light/Dark Stress Response (5 min alternating pulses of light and dark) in small to med well plates (96-48 well plates), and 2) Thigmotaxis assays in large well plates with 50% of the swimming surface colored dark around the margins of the well in large (24-12 well plates) will be assessed for their efficacy in testing the phytochemicals.
(§3) The discovery methods of the present invention include testing the effects of up to 20 phytochemicals and 40 mixtures of the phytochemicals on behavioral stress response patterns of zebrafish larvae. Larval behavior was assessed with an automated video tracking system following acute exposure to each phytochemical sample. Stereotypical basal activity patterns of larvae were assessed to determine the concentration dependent effect of each compound. A zebrafish model of thigmotaxis in large well plates (24-12 well plates) was assessed for their efficacy in testing the phytochemicals. In the discovery method, fertilized eggs were kept on a re-circulating system in baskets until use at 120 hpf (5 days). At 120 hpf, larvae were loaded into 48 well plates in buffered fish media and acclimated to the plate in a heated light incubator for 2 hours. Larvae were acutely exposed with drug or controls at a 10× concentration and the plate was quickly transferred to a behavioral tracking system. Acute behavioral run was 90 minutes (baseline activity) in the light followed by alternating 5 minute bins (total 2 hours). […]

For data set [2], the system named is zebrafish larvae. As to the kind of experiment: Light/Dark Stress Response (5 min alternating pulses of dark and light for 30 min). It counts as in vivo. Also on record: key to Light/Dark Stress Response: +: statistically significant increase; −−: statistically significant decrease. Here is the method:
as §1, §2, §3

Data set [3] has as its system zebrafish larvae. As to the kind of experiment: Thigmotaxis assay. It counts as in vivo. On the set-up: key: +: statistically significant increase; −−: statistically significant decrease. As for the experimental part: as §1, §2, §3
Data set [4] relates to zebrafish larvae. As to the kind of experiment: Zebrafish models of stress and anxiety, overall verdict (Light/Dark Stress Response and thigmotaxis). It counts as in vivo. Conditions: for Anti-Anxiety Potential?: API used singly. As for the experimental part: as §1
Additionally, testing is done with mixtures of these same selected phytochemicals from P. methysticum and other plants selected by our in silico analyses. The testing results are analyzed using artificial intelligence systems to rank effectiveness in reducing the Light/Dark response and thigmotactic behavior for the
The A1 enabled drug discovery platform database search data was evaluated to select the best drug candidates from: A Piper methysticum, B. within the Piper plant family (>200 Piper spp.), or C. traditional medicines to begin testing […] (API) singles, doubles, and triples in two complementary zebrafish models of anxiety light/dark startle response testing and thigmotaxis assays.
as §2
The discovery methods of the present invention include testing the effects of up to 20 phytochemicals and 40 mixtures of the phytochemicals on behavioral stress response patterns of zebrafish larvae. Larval behavior was assessed with an automated video tracking system following acute exposure to each phytochemical sample. […]

The next data set concerns MAO-A. Conditions: cited from earlier work.
For another data set, the system named is MAO-B. Conditions: cited from earlier work.
Data set [5] can be described thus: Pharmacokinetics of piperine acting alone. It counts as in vivo.

Consider `COC1=CC(=O)O[C@@H](CCc2ccc3c(c2)OCO3)C1` [(+)-dihydro methysticin], for which the results for the “Baseline Exposure” value in the data set on zebrafish larvae [1] (High), with zebrafish larvae [1] (Low) and in the data set on zebrafish larvae [1] (Med) were “−−”, “+” and “−−”, respectively. The “baseline Activity (90 min light)” value in the data set on zebrafish larvae [1] (vehicle 0.5% MeOH, listed as Dihydromysticin) is on record as “baseline activity is close to controls; also recorded: (slight increase initially)”; with zebrafish larvae [1] (vehicle 1% MeOH, listed as Dihydromysticin), “baseline activity levels reduced; also recorded: (evidence of sedation)”. Besides, the “Light/Dark Stress Response (5 min light/dark pulses)” value with zebrafish larvae [2] (vehicle 0.5% MeOH) was “stress response is reduced”; in the data set with zebrafish larvae [2] (vehicle 1% MeOH), “stress response is reduced, but evidence”. The “Thigmotaxis Model” value with zebrafish larvae [3] (High) and with zebrafish larvae [3] (Med) was “−−” in each case. Besides, the “Anti-Anxiety Potential?” value in the data set with zebrafish larvae [4] is given as “Yes”. For the same compound, the “Therapeutic Potential” value in the data set on zebrafish larvae [4] (vehicle 0.5% MeOH) is “Yes”. The “Approx. Dose (cell or animal experiments), MAO-A” value with MAO-A is recorded as “MAO-A 23.2 μM,”. In addition, the “Approx. Dose (cell or animal experiments), MAO-B” value in the data set on MAO-B is on record as “MAO-B 0.855 μM”.

As for `O=C(/C=C/C=C/c1ccc2c(c1)OCO2)N1CCCCC1` [piperine], the “Baseline Exposure” value with zebrafish larvae [1] (High) is listed as “+”; in the data set on zebrafish larvae [1] (Low) it was “−−”. Further, the “effect on the baseline activity” value in the data set on zebrafish larvae [1] (acting alone) is “virtually no effect on the baseline activity”. The “Light/Dark Stress Response” value in the data set with zebrafish larvae [2] (High) and in the data set on zebrafish larvae [2] (Med) was “−−” throughout. The “Light/Dark Stress Response (5 min light/dark pulses)” value in the data set on zebrafish larvae [2] (vehicle 1% MeOH) is on record as “stress response is reduced”. Moreover, the “Thigmotaxis Model” value with zebrafish larvae [3] (High) is “−−”. For the same compound, the “Anti-Anxiety Potential?” value in the data set with zebrafish larvae [4] is recorded as “Yes”. Further, the “Therapeutic Potential” value in the data set with zebrafish larvae [4] (vehicle 1% MeOH) is given as “YES-top pick”. Further, in data set [5], the pharmacokinetics entry is reported as “positive results”.

As for `COc1ccc(/C=C/c2cc(OC)cc(=O)o2)cc1` [yangonin], the “Baseline Exposure” value in the data set on zebrafish larvae [1] (High), with zebrafish larvae [1] (Low) and in the data set on zebrafish larvae [1] (Med) was “+” throughout. For the same compound, the “baseline Activity (90 min light)” value in the data set on zebrafish larvae [1] (vehicle 0.5% MeOH) and in the data set with zebrafish larvae [1] (vehicle 1% MeOH) was “baseline activity is close to controls; also recorded: (slight increase initially)” in each case. In addition, in the data set with zebrafish larvae [2] (High), the “Light/Dark Stress Response” value is reported as “−−”. The “Light/Dark Stress Response (5 min light/dark pulses)” value in the data set on zebrafish larvae [2] (vehicle 0.5% MeOH) and in the data set with zebrafish larvae [2] (vehicle 1% MeOH) was “stress response is reduced” throughout. For the same compound, the “Thigmotaxis Model” value in the data set on zebrafish larvae [3] (High) and with zebrafish larvae [3] (Med) was “−−” throughout. Besides, the “Anti-Anxiety Potential?” value in the data set on zebrafish larvae [4] was “Yes”. Also, the “Therapeutic Potential” value with zebrafish larvae [4] (vehicle 0.5% MeOH) and with zebrafish larvae [4] (vehicle 1% MeOH) was “Yes” in each case. Also, in the data set on MAO-A, the “Approx. Dose (cell or animal experiments), MAO-A” value was “MAO-A1.29 μM,”. Moreover, the “Approx. Dose (cell or animal experiments), MAO-B” value in the data set on MAO-B is reported as “MAO-B 0.085 μM”.
